Columns and labels:
[1] = Production of H2O2 in the presence of ascorbate (colorimetric); format: biochemical; conditions: ascorbate plus GdTex, over the time interval of 75 to 200 minutes
Procedure: In this example, the following stock solutions were prepared: • Stock ascorbic acid (Sigma A 5960) (prepared fresh): 9.98 mg/(10 mL×176.12 mg/mmol)=5.67 mM • Stock GdTex: 5.76 mg/(10.0 mL water×1148 mg/mmol)=502 μM • Stock 4× Buffer: 200 mM HEPES, pH 7.5; 400 mM NaCl These were combined to form the reaction mixture: 200 μL 4× Buffer, 39 μL ascorbic acid Stock, 517.3 μL Water, 43.7 μL GdTex Stock. The reaction mixture was analyzed for hydrogen peroxide as indicated above. As a control, a solution in which complex was not added was prepared as above, with suitable adjustment of the volume of water, and analyzed concurrently.
Measurements of the absorbance at 560 nm (with appropriate subtraction of the background absorbance of the reagent at this wavelength) were made of samples taken at the various timepoints. It was noted that the control solution gave a uniform background absorbance which was similar at all time points, whereas the mixture containing GdTex gave an increasing amount of absorbance over time. (Sugars are known to produce high background absorbance in this assay, see manufacturers insert for details.)

[2] = tested on: MES-SA human uterine cells; test: Proliferation of MES-SA cells with BSO and GdTex (MTT); format: cell-based
Procedure: The proliferation of MES-SA human uterine cells grown in McCoys 5A medium in the presence of a thiol depleting agent (BSO) or GdTex was used to assess the combined effect of these agents. The protocol outlined in the previous example was followed, with the following changes:
1. The serially diluted compound was 200 μM BSO (Sigma Chemical, St. Louis, Mo., catalogue no. G1404).
2. The cells were allowed to incubate in the presence of the two drugs for ca. 72 hours, prior to exchange of media and analysis using the colorimetric (MTT) assay, as described, e.g., in Example 5.

MES-SA cells = test: Radiation sensitization by clonogenic assay; format: cell-based, human
Procedure: The response of MES-SA cells to ionizing radiation was studied using a clonogenic assay format to confirm radiation sensitization potential.
Materials and Methods. MES-SA cells (200 to 5,000 cells per dish) were plated in T-25 flasks in 8.5 mL McCoys 5A containing 10% FBS (Gibco-BRL) and ca. 2% penicillin/streptomycin solution (Sigma) and incubated at 37° C. overnight. Stock BSO, ascorbate, GdTex (or a control 5% mannitol) solutions were prepared and 0.5 mL of each added to each flask to give a final volume of 10 mL (final concentrations of BSO, ascorbate and GdTex were 100 μM, 5 μM and 50 μM, respectively) and the cells incubated for 24 hr, whereupon the flasks were irradiated using a 137Cs irradiator (Model 40 Gammacell, J. L. Shepherd & Assoc., San Fernando, Calif.) at a dose rate of 0.805 Gy/min. Medium was removed immediately after irradiation, the cells were washed with fresh medium (5.0 mL) followed by the addition of fresh medium (10 mL) and incubation for an additional 11 days. Colonies were fixed and stained with 1% crystal violet and then counted.

[3] = tested on: MES-SA human uterine cells; test: Proliferation of BSO-treated MES-SA cells with Antimycins A and GdTex (MTT); format: cell-based; conditions: BSO pre-treated cells, Antimycins A 0 to 20 μM, GdTex up to 100 μM, 20 h
Procedure: The proliferation of MES-SA human uterine cells grown in McCoys SA medium in the presence of the thiol depleting agent BSO, with varying concentrations of a mitochondrial inhibitor (Antimycins A) and GdTex was used to assess the combined effect of these agents.
Materials and Methods. MES-SA cells were incubated at 37° C. and allowed to adhere to 96-well microtiter plates (2000 cells per well) overnight in 180 μL McCoys 5A containing 10% FBS (Gibco-BRL) and ca. 2% penicillin/streptomycin solution (Sigma). BSO (20 μL) was added to all wells followed by incubation for a further 24 h. The medium was exchanged and Antimycins A was serially diluted at concentrations ranging from 0 to 20 μM and after 0.5 hr metallotexaphyrin complex (up to 100 μM) was added to the test wells to give a final volume of 200 μL, followed by incubation for 20 h, whereupon the medium was exchanged and the plates were incubated an additional 52 h prior to analysis for viability using the MTT assay.

[4] = Production of H2O2 in the presence of NADPH (Bioxytech H2O2-560 colorimetric); format: biochemical; conditions: NADPH plus 0.05 molar equivalent texaphyrin, no catalase, over the course of 100 minutes
Procedure: • Stock NADPH (Sigma N 7505) (prepared fresh): 10.14 mg/(10 mL×833.4 mg/mmol)=1.217 mM • Stock LuTex: 5.02 mg/(10.0 mL water×1166 mg/mmol)=[…] • Stock 4× Buffer: 200 mM HEPES, pH 7.5; 400 mM NaCl These were combined to form the reaction mixture: 200 μL 4× Buffer, 200 μL NADPH Stock, 371.8 μL Water, 28.2 μL LuTex Stock. This was analyzed as indicated below. As a control, a solution in which the LuTex complex was not added was prepared as above, with suitable adjustment of the volume of water, and analyzed concurrently. In similar manner, a solution was prepared as above except that 2 μL catalase (Boeringer-Mannheim 106 836, now Roche Molecular Biochemicals, Indianapolis, Ind.) was added, and analyzed concurrently.
A reaction mixture was prepared containing NADPH, buffer, and water. Texaphyrin catalyst, eg., 0.05 molar equivalent, was added to this reaction mixture, vortexed briefly, and incubated at ambient temperature in the dark. […] The absorbance at 240 nm was used to standardize this solution, which was further diluted and used to construct a standard H2O2 curve at 560 nm in conjunction with the H2O2 calorimetric reagent. […]
Measurements of the absorbance at 560 nm (with appropriate subtraction of the background absorbance of the reagent at this wavelength) were made of samples taken at the various time points.

Structure (SMILES) | H2O2 produced [1] | inhibitory effect of GdTex alone ([2]; absence of BSO, ca. 72 hours, McCoys 5A medium) | combined effect of GdTex and BSO on cell growth ([2]; increasing amounts of GdTex with BSO, data normalized for GdTex alone) | radiation response, co-administration (MES-SA cells; 50 μM GdTex and 100 μM BSO co-administered, 24 h prior to irradiation) | effect on clonogenic survival as a function of radiation, single agent (MES-SA cells; 50 μM GdTex or 100 μM BSO for 24 h prior to irradiation, ascorbate-containing medium) | combined effect of GdTex and Antimycins A on cell growth [3] | H2O2 produced [4]
CC(=O)[O-].CC(=O)[O-].CCc1c(CC)c2cc3nc(cnc4cc(OCCOCCOCCOC)c(OCCOCCOCCOC)cc4ncc4nc(cc1[n-]2)C(CCCO)=C4C)C(C)=C3CCCO.O.[Gd+3] [GdTex, motexafin gadolinium] | approximately 35 μM | ca. 50% | increase in the cytotoxic dose response of the cells towards BSO | radiation response significantly greater than the sum of the responses obtained from them individually | relatively small effect on clonogenic survival | increase in the cytotoxic dose response of the cells towards Antimycins A | 
CC(=O)[O-].CC(=O)[O-].CCc1c(CC)c2cc3nc(cnc4cc(OCCOCCOCCOC)c(OCCOCCOCCOC)cc4ncc4nc(cc1[n-]2)C(CCCO)=C4C)C(C)=C3CCCO.O.[Lu+3] [LuTex, motexafin lutetium] |  |  |  |  |  |  | Approximately 40 μM

From patent US7579338B2, “Methods and compositions for treating atheroma, tumors and other neoplastic tissues” (Pharmacyclics, Inc., priority 1999, dated 2009)
